From US20220047545A1 (priority 2020, published 2022)

Tests used:
[1] = system: cathepsin L expression in A549 cells; experiment: Cathepsin L expression in A549 cells (Western blot); type: cell-based, human
Method: Proteins (50 μg/well) were separated on 8-16% gradient SDS-PAGE gels and transferred to a PVDF membrane. […] Images were captured with Azure™ cSeries digital imaging system (Azure Biosystems, Dublin, Calif.) with auto-exposure settings. Densitometry was performed with NIH ImageJ software.
Cathepsin L expression: Expression of cathepsin L in cells was performed using Western blot. Briefly, 48 hours prior to the analysis, A549 cells were treated with PB at 5.0, and 10 μg/ml concentrations. Next, cells were washed with 1×PBS, lysed, and processed according to procedure described below.
Western blot: […] cells were lysed with lysis buffer [RIPA buffer plus 1× Protease Inhibitor (ThermoFisher Scientific, Waltham, Mass.)]. The protein estimation was performed with Dc Protein Assay (Bio-Rad, Hercules, Calif.). A 45 μg/well of protein was separated on 8-16% gradient SDS-PAGE gels and transferred to a PVDF membrane. Detection was performed with antibodies against cathepsin L at 1:200 dilution (Santa Cruz Biotechnology, Santa Cruz, Calif.) and against β-actin at 1:1000 dilution (Cell Signaling, Danvers, Mass.).

[2] = system: lysosomal/endosomal pH in A549 cells; experiment: Endosomal/lysosomal pH assay; type: cell-based, human; details: 5.0-25 μg/ml; control approximately pH=5.0
Method: Endosomal/lysosomal pH assay: Endosomal pH was assessed according to a previously reported protocol [54]. […] Acridine orange (Thermo Fisher Scientific, Waltham, Mass.) was added directly to each dish to reach a final concentration of 6.6 μg/ml. The cells were additionally incubated at 37° C. with 5% CO2 for 20 min. and washed three times with 1×PBS. Live Cell Imaging Solution (LCIS) (Thermo Fisher Scientific, Waltham, Mass.) was added to the wells, and images were taken using a Zeiss Axio Observer A1 fluorescence microscope with a 40× magnification. […] Results are expressed as a percentage of polyphenol-free control (mean+/−SD, n=3).
A concurrent experiment was performed using pHrodo™ Green AM Intracellular pH Indicator (Thermo Fisher Scientific, Waltham, Mass.) according to the manufacturer's protocol. […] The plate was incubated for 30 min. at 37° C., washed again with LCIS, and fluorescence was measured at Ex/Em=509/533 nm wavelength using a spectrofluorometer (Tecan Group Ltd, Switzerland). pH identification was performed based on standard curve, using an Intracellular pH Calibration Buffer Kit according to the manufacturer's protocol (Thermo Fisher Scientific, Waltham, Mass.). […] Next, the fluorescence was measured Ex/Em=509/533 nm wavelength. […]

[3] = system: A549 cells expressing eGFP spike protein fusing with hACE2-overexpressing A549 cells; type: cell-based, human; details: 25 μg/ml, 4 h
[4] = target: T1, human recombinant cathepsin L (Homo sapiens, UniProt P07711); experiment: Cathepsin L activity, purified/recombinant enzyme (cell-free); type: biochemical
T1 construct: purchased BPS Bioscience
T1 sequence (P07711 114-333): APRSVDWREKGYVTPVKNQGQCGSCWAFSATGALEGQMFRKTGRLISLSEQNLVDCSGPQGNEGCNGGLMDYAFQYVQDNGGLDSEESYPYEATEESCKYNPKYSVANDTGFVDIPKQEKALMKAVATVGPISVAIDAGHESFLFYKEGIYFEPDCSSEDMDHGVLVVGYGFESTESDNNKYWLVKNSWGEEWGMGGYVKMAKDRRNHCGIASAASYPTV
Method: Positive control contained only cathepsin L, and negative control containing cathepsin L and cathepsin L inhibitor E64d (25 μM). The fluorescence was recorded at extension/emission=360/480 nm with a fluorescence spectrometer (Tecan Group Ltd., Switzerland).

[5] = target: T2, cellular hACE2 in hACE2/A549 cells (Homo sapiens, UniProt Q9BYF1); experiment: Cellular hACE2 activity assay; details: cell-based
T2 construct: host or cells: A549 (human alveolar epithelial) stably overexpressing hACE2
T2 sequence (Q9BYF1 18-805): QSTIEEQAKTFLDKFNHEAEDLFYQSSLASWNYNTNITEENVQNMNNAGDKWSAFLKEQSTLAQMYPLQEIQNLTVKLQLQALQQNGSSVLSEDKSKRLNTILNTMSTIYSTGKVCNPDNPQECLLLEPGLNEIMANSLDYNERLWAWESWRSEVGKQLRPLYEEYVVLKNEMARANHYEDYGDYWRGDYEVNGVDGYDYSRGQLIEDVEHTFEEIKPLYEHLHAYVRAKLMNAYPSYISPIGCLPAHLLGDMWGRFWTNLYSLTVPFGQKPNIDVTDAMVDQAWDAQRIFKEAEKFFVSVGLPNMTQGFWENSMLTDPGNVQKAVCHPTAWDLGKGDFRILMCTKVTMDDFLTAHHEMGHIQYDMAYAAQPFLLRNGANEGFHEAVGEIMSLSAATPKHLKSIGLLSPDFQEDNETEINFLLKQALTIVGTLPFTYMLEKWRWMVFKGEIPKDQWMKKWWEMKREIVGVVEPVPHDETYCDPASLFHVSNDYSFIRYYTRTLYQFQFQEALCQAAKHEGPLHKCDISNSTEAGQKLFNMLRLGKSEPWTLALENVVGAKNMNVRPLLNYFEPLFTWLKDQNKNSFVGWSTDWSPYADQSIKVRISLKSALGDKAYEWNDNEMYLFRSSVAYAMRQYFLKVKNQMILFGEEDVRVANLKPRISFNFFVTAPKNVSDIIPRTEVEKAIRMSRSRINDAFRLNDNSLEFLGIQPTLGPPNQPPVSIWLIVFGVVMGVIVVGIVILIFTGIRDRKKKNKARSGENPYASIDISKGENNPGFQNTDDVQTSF
Method: ACE2 activity assays: To determine the inhibitory effect of selected polyphenols on the activity of cellular hACE2 protein, hACE2/A549 cells were seeded in 48-well plates and allowed to adhere for 24 h or until reaching 99-100% of confluence. […] (Dnp)-OH. Finally, the plates were incubated at 37° C. for 1 h, and the fluorescence signal was measured at Ex/Em=320/405 nm wavelength with a spectrofluorometer (Tecan Group Ltd, Switzerland). […] Results are expressed as a percentage of polyphenol-free control (mean+/−SD, n=6).

[6] = target: T3, hACE2 (Homo sapiens, UniProt Q9BYF1); experiment: ACE2 binding assay (ACE2 Inhibitor Screening Assay Kit); design: purchased BPS Bioscience; details: polyphenols 5.0-25 μg/ml; PB 5.0 and 10 μg/ml
T3 sequence (Q9BYF1 18-805): as above

[7] = target: T4, cathepsin L in A549 cells (Homo sapiens, UniProt P07711); experiment: Cellular cathepsin L activity (lysates of treated A549 cells); type: cell-based; details: 25 μg/ml, not significant
T4 construct: A549 cells were seeded in 6-well plates; endogenous in cells; host or cells: A549 (ATCC)
T4 sequence (P07711 114-333): as the sequence (P07711 114-333) above
Method: Cathepsin L activity assays: Cellular cathepsin L activity assays were performed utilizing a Cathepsin L Activity Assay Kit (Abcam, Cambridge, Mass.) according to the manufacturer's protocol. […] The samples were then centrifuged for 2 min. at 4° C. to remove any insoluble material. Supernatants were collected and transferred to clean tubes that were kept on ice. […] The plates were incubated at 37° C. for 1 h and fluorescence signal was measure at Ex/Em=400/505 nm wavelength with a spectrofluorometer (Tecan Group Ltd, Switzerland). […] Results are expressed as a percentage of polyphenol-free control (mean+/−SD, n=6).
Cathepsin L activity assay and its cellular expression: Cathepsin L activity: Experiment was performed in cell lysates using a Cathepsin L Activity Assay Kit (Abcam, Cambridge, Mass.) according to the manufacturer's protocol. […] After 3 minutes of centrifuged for at 4° C., supernatants were collected and enzymatic reaction was set up by mixing 50 μl of treated sample, 50 μl of control sample, 50 μl of background control sample, 50 μl of positive and negative controls. […] Samples were incubated at 37° C. for 1 hour, and fluorescence was recorded at extension/emission=400/505 nm with a fluorescence spectrometer (Tecan Group Ltd., Switzerland).

[8] = target: RBD of SARS-CoV-2 spike protein binding to hACE2 receptor (Severe acute respiratory syndrome coronavirus 2, UniProt P0DTC2)
[9] = target: T3, hACE2; experiment: Recombinant hACE2 activity assay (cell-free); type: biochemical; design: purchased BPS Bioscience
Method: To determine the inhibitory effect of selected polyphenols on the activity of recombinant hACE2 protein, an ACE2 Activity Screening Assay Kit (BPS Bioscience, San Diego, Calif.) was used according to the manufacturer's protocol. […] The positive control was a sample containing only ACE2 enzyme, and the negative control was a sample containing ACE2 enzyme and 10% DMSO. ACE2 fluorogenic substrate (10 μM) was added to each well, and the plate was incubated for 1 h at RT. The fluorescence was measured at Ex/Em=535/595 nm wavelength using a spectrofluorometer (Tecan Group Ltd, Switzerland). […] Results are expressed as a percentage of polyphenol-free control (mean+/−SD, n=6).
The positive control contained only ACE2 enzyme, and the negative control additionally contained 10% DMSO.

[10] = target: T5, recombinant hTMPRSS2 (Homo sapiens, UniProt O15393); experiment: Recombinant TMPRSS2 activity assay (cell-free); type: biochemical; details: 10-25 μg/ml, 3 h treatment
T5 construct: purchased Creative BioMart
T5 sequence (O15393 whole entry): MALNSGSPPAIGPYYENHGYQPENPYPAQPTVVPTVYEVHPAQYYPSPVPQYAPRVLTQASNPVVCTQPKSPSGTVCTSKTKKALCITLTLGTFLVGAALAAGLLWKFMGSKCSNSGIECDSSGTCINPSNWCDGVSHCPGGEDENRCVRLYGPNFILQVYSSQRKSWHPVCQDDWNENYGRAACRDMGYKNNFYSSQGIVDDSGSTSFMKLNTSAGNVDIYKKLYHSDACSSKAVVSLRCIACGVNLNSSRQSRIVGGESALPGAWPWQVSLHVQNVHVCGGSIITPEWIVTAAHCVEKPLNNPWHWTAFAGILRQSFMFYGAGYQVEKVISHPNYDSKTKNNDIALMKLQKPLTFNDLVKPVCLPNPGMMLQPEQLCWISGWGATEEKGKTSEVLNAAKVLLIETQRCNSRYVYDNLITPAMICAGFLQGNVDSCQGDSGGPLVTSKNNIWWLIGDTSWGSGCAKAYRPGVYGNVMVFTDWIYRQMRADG
Method: To this reaction 10 μM of TMPRSS2 enzyme in assay buffer (50 mM Tris pH=8, 150 mM NaCl) was added. Following 1 h incubation at RT, detection of fluorescent signal was performed using a spectrofluorometer at Ex/Em=360/440 nm wavelength (Tecan Group Ltd, Switzerland). The positive control was 100 μM camostat mesylate. […] Results are expressed as a percentage of polyphenol-free control (mean+/−SD, n=6).
Fluorescence was assessed using a spectrofluorometer at extension/emission=360/440 nm (Tecan Group Ltd., Switzerland). The positive control was 100 μM camostat mesylate.

Compound: Theaflavin-3,3′-digallate
- decrease of cathepsin L expression ([1]; starting from 10 μg/ml): about 20%
- lysosomal/endosomal pH reached [2]: 5.5-6.0

Compound: Oc1ccc2c(c1)OC[C@]1(O)Cc3cc(O)c(O)cc3[C@H]21 [Brazilin]
- cathepsin L expression at protein level ([1]; A549 cells): neither brazilin nor curcumin down-regulated cathepsin L expression
- decrease of cell-cell fusion [3]: 40%
- effect on recombinant cathepsin L [4]: minor, not significant effect
- effect on ACE2 activity [5]: no effects
- direct binding to ACE2 receptor [6]: does not bind to ACE2 directly
- decrease of cathepsin L activity in cell lysates [7]: 15%
- Binding with RBD (% of control ± SD) [8]: 100 ± 0.1 % of control
- effect on ACE2 activity [9]: no effects
- inhibition of recombinant hTMPRSS2 activity [10]: 20-30%
